In PMC6105827, “Antitrypanosomal 8-Hydroxy-Naphthyridines Are Chelators of Divalent Transition Metals” (Antimicrobial Agents and Chemotherapy, 2018):
Read-outs that look alike come from different tables or passages of the source.

Key:
[1] = tested on: T. brucei bloodstream forms; test: microbe, parasite or virus in culture
Protocol: (§1) The clonal Leishmania donovani cell line LdBOB (derived from MHOM/SD/62/1S-CL2D) was grown as promastigotes at 28°C, as described previously ([53]). Bloodstream-form T. brucei MiTat 1.2 clone 221a and its derived subline, 2T1, were cultured at 37°C in the presence of 5% CO2 in HMI9-T medium, as described previously ([54]). The human carcinoma HepG2 cell line was grown at 37°C with 5% CO2 in minimal Eagle's medium (MEM) with GlutaMAX (1×; Sigma-Aldrich), nonessential amino acids (Sigma-Aldrich), and 10% FBS. Human HepG2 and THP-1 cells used in this study were ethically sourced from the ATCC.
(§2) L. donovani intramacrophage ([7]), HepG2 ([55]), T. brucei ([56]), and L. donovani promastigote ([57]) compound sensitivity assays were carried out as described previously. Human HepG2 and THP-1 cells used in these assays were provided by the ATCC. Data were processed by using GRAFIT (version 5.0.4; Erithacus Software) and fitted to a 2-parameter equation to obtain the effective concentration inhibiting growth by 50% (EC50). Data are presented as the means of results from at least two independent experiments.
(§3) In the first instance, the maximum tolerated concentrations of ZnCl2, CaCl2, CuCl2, MgCl2, MnCl2, and FeCl2 were determined for each cell type. […] Standard drug sensitivity assays were carried out (as described above) for each cell type with compounds 1, 2, and 3 in the presence and absence of the maximum tolerated concentration of metal salt.

[2] = Cell-free fluorescence-based (FluoZin-3 salt) zinc binding assay; details: compounds and DFMO 1 to 100 μM; TPEN 10 μM
Protocol: ZnCl2 (5 μM) was incubated with various concentrations of our three 8-HNT compounds followed by the addition of 125 nM FluoZin-3 salt dye. Reaction mixtures were preincubated for 20 min at RT and then aliquoted into a black 96-well plate. Fluorescence was then measured with a Pherastar spectrophotometer (excitation at 485 nm and emission at 520 nm). Calculations were carried out in Excel.

[3] = tested on: T. brucei bloodstream forms; test: Intracellular Zn2+ measurement with FluoZin-3 in T. brucei; type: cell-based, Trypanosoma brucei; details: 8-HNT compounds 5 μM, TPEN 8 μM
Protocol: (§4) L. donovani promastigotes were grown to 2 × 10^7 cells ml^−1 and harvested by centrifugation (10 min at 1,600 × g). T. brucei bloodstream forms were grown to 2 × 10^6 cells ml^−1 and harvested by centrifugation (5 min at 800 × g). Parasites were washed with PBS and resuspended to a final concentration of 2.5 × 10^7 parasites ml^−1 in fresh PBS. Cells were incubated with FluoZin-3 (final concentration, 5 μM), pluronic acid (final concentration, 5 μM), and 14 mM glucose (T. brucei only). Parasites were incubated for 60 min at room temperature (RT), washed three times with PBS, and then resuspended in PBS (with 14 mM glucose for T. brucei only) before being aliquoted into a black, clear-bottomed 96-well plate (final concentration of 2.5 × 10^7 cells ml^−1). 8-HNT or control compounds were added directly to cells, and fluorescence was measured immediately by using a Pherastar fluorescence spectrophotometer (excitation at 485 nm and emission at 520 nm). Calculations were performed in Excel. […] Parasites were confirmed to be viable by microscopy after the completion of the experiment.

[4] = tested on: L. donovani; details: cited from earlier work
[5] = tested on: L. donovani promastigotes; test: Intracellular Zn2+ measurement with FluoZin-3 in L. donovani; type: cell-based, Leishmania donovani; details: 8-HNT compounds 5 μM, TPEN 8 μM
Protocol: as §4

[6] = tested on: L. donovani promastigotes; test: L. donovani promastigote compound sensitivity assay (with/without metal salts); details: for Tolerated concentration of exogenous metal salt: L. donovani promastigotes; for EC50: Leishmania donovani; for Shift: promastigotes
Protocol: as §1, §2, §3

[7] = tested on: HepG2 cells; test: HepG2 compound sensitivity assay (with/without ZnCl2); details: for EC50: Homo sapiens
Protocol: as §1, §2, §3

[8] = Spectrophotometric UV-Vis titration and Job's plot of binding to divalent cations; type: physicochemical; details: combined concentration 200 μM in methanol; absorbance 475/390/375 nm
Protocol: UV-visible (UV-Vis) titrations were carried out essentially as described previously ([65], [66]). Aliquots of metal divalent cations (concentrated stocks were made initially in water and then diluted in methanol) were added to a fixed concentration of 50 μM 8-HNT compound in methanol. After each aliquot addition, the incubation mixture was left to stabilize for 5 min at 25°C prior to scanning. Wavelength scanning was carried out at between 260 and 510 nm by using a UV-2401 PC UV-Vis spectrophotometer (Shimadzu). For Job's plot analyses ([66]), the combined concentration of 8-HNT and cation was fixed at 200 μM, and only the molar ratio of cation versus 8-HNT compound varied. Changes of the absorption at 475, 390, and 375 nm were indicative of cation complex formation with compounds 1 to 3, respectively. Specific absorbance at these wavelengths was determined and plotted against the molar ratio of compound to cation to determine complex stoichiometry ([66]).

[9] = tested on: THP-1 cells; test: THP-1 cell sensitivity; type: cell-based; details: Homo sapiens
Protocol: as §2

[10] = tested on: L. donovani intramacrophage amastigotes; test: L. donovani intramacrophage compound sensitivity assay; type: cell-based; details: Leishmania donovani; L. donovani intramacrophage amastigotes; ≥3 independent replicates; read-out: Intra-macrophage EC50
Protocol: as §2

[11] = tested on: T. brucei; parameters: method as in PMID 11849643; details: cited from earlier work
[12] = tested on: L. major; parameters: method as in PMID 7768775; details: cited from earlier work
[13] = tested on: L. donovani promastigotes; test: Generation of an 8-HNT-resistant L. donovani cell line; type: cell-based, Leishmania donovani
Protocol: Resistant lines were generated as described previously ([31]), using compound 2 in L. donovani promastigotes. Starting at a sublethal concentration of 1 μM compound 2 in 3 independent cultures, concentrations were increased in a stepwise manner. However, after a total of 270 days in culture, promastigotes were unable to grow in ≥10 μM compound 2.

[14] = read-out: EC50 against bloodstream-form T. brucei, substance alone (Fig. S2), mean ± SEM
[15] = read-out: EC50 values, WT, promastigotes, absence of cation, FeCl2 experiment
[16] = read-out: EC50 values, WT, promastigotes, absence of cation, ZnCl2 experiment
[17] = read-out: L. donovani pro EC50, promastigotes (Fig. 1)
[18] = Trypanosoma brucei, read-out: Mean EC50 ± SD, Plus cation, plus CaCl2 (3 mM)
[19] = Trypanosoma brucei, read-out: Mean EC50 ± SD, Plus cation, plus CuCl2 (5 μM)
[20] = Trypanosoma brucei, read-out: Mean EC50 ± SD, Plus cation, plus MgCl2 (1 mM)
[21] = Trypanosoma brucei, read-out: Mean EC50 ± SD, Plus cation, plus MnCl2 (10 μM)
[22] = Trypanosoma brucei, read-out: Mean EC50 ± SD, WT, absence of cation, CaCl2 experiment
[23] = Trypanosoma brucei, read-out: Mean EC50 ± SD, WT, absence of cation, CuCl2 experiment
[24] = Trypanosoma brucei, read-out: Mean EC50 ± SD, WT, absence of cation, FeCl2 experiment
[25] = Trypanosoma brucei, read-out: Mean EC50 ± SD, WT, absence of cation, MgCl2 experiment
[26] = Trypanosoma brucei, read-out: Mean EC50 ± SD, WT, absence of cation, MnCl2 experiment
[27] = Trypanosoma brucei, read-out: Mean EC50 ± SD, WT, absence of cation, ZnCl2 experiment
[28] = Trypanosoma brucei, read-out: T. brucei bsf EC50, bloodstream form (Fig. 1)

[Cl][Mn][Cl] [MnCl2]
Maximum concentration of metal salt having a minimal impact on cell growth ([1]; T. brucei): 10 µM

NCCCC(N)(C(=O)O)C(F)F (stereo not drawn) [DFMO, difluoromethylornithine, reference compound]
Cell-free FluoZin-3 fluorescence (competition for Zn^2+ binding) [2]: did not affect the fluorescence levels | Effect of exogenous divalent cations, including Fe^2+ and Zn^2+, on potency against T. brucei ([1]; control): failed to alter the potency | EC50 [1, 14]: 39500 ± 900 nM

[Cl-].[Cl-].[Mg+2] [MgCl2]
Maximum concentration of metal salt having a minimal impact on cell growth ([1]; T. brucei): 1000 µM

c1ccc(CN(CCN(Cc2ccccn2)Cc2ccccn2)Cc2ccccn2)nc1 [TPEN, N,N,N′,N′-tetrakis(2-pyridylmethyl)ethane-1,2-diamine]
Intracellular zinc level (FluoZin-3 fluorescence) [3]: decrease in fluorescence | Cell-free FluoZin-3 fluorescence (competition for Zn^2+ binding) [2]: reduction in the level of fluorescence | Inhibition of L. donovani in vitro [4]: inhibit | EC50 ([1]; Trypanosoma brucei, read-out: EC50 against bloodstream-form T. brucei, substance alone (Fig. S2), mean ± SEM): 4100 ± 900 nM | Intracellular zinc level (FluoZin-3 fluorescence) [5]: decrease in fluorescence

[Cl][Fe][Cl] [FeCl2]
Tolerated concentration of exogenous metal salt [6]: 100 µM | Maximum concentration of metal salt having a minimal impact on cell growth [1]: 10 µM | EC50 [1, 14]: 16800 ± 1400 nM

[Cl-].[Cl-].[Zn+2] [ZnCl2]
Tolerated concentration of exogenous metal salt [6]: 100 µM | Maximum concentration of metal salt having a minimal impact on cell growth [1]: 200 µM | EC50 [1, 14]: 619000 ± 12600 nM | Tolerated concentration of exogenous metal salt ([7]; HepG2 cells): 100 µM

[Ca+2].[Cl-].[Cl-] [CaCl2]
Maximum concentration of metal salt having a minimal impact on cell growth ([1]; T. brucei): 3000 µM

CC(NC(=O)c1ncc2cccnc2c1O)c1ccc(F)cc1 (stereo not drawn) [Compound 3]
Job's plot intercept, molar fraction (compound to Zn^2+) [8]: 0.35 | EC50 [6, 15]: 100 ± 4 nM | EC50 [6, 16]: 200 ± 10 nM | EC50 [6, 17]: 220 nM | Shift ([6]; FeCl2 (100 μM) vs WT): 1.9 fold | Shift ([6]; ZnCl2 (100 μM) vs WT): 120.1 fold | EC50 [9]: > 16000 nM | EC50 [10]: 200 nM | Shift (fold) ([1]; CaCl2 (3 mM) vs WT): 0.9 fold | Shift (fold) ([1]; CuCl2 (5 μM) vs WT): 1.1 fold | Shift (fold) ([1]; FeCl2 (10 μM) vs WT): 3.7 fold | Shift (fold) ([1]; MgCl2 (1 mM) vs WT): 0.9 fold | Shift (fold) ([1]; MnCl2 (10 μM) vs WT): 1.3 fold | EC50 [1, 18]: 700 ± 40 nM | EC50 [1, 19]: 800 ± 60 nM | EC50 [1, 20]: 700 ± 50 nM | EC50 [1, 21]: 1010 ± 40 nM | EC50 [1, 22]: 800 ± 100 nM | EC50 [1, 23]: 800 ± 50 nM | EC50 [1, 24]: 900 ± 30 nM | EC50 [1, 25]: 800 ± 50 nM | EC50 [1, 26]: 800 ± 50 nM | EC50 [1, 27]: 500 ± 30 nM | EC50 [1, 28]: 520 nM | Shift (fold) ([1]; ZnCl2 (200 μM) vs WT): 12.0 fold | EC50 ([7]; HepG2, read-out: HepG2 EC50): 16100 nM

CC(=O)N(O)CCCCCNC(=O)CCC(=O)N(O)CCCCCNC(=O)CCC(=O)N(O)CCCCCN [deferoxamine]
Growth inhibition of L. donovani in vitro [4]: inhibit the growth | Growth inhibition of T. brucei in vitro [11]: inhibit the growth | Growth inhibition of L. major in vitro [12]: inhibits the growth

COc1ccccc1-c1nc(-c2nc(C)n[nH]2)c(O)c2ncccc12 [Compound 2]
Job's plot intercept, molar fraction (compound to Zn^2+) [8]: 0.31 | EC50 [6, 15]: 100 ± 10 nM | EC50 [6, 16]: 200 ± 40 nM | EC50 [6, 17]: 180 nM | Shift ([6]; FeCl2 (100 μM) vs WT): 6.8 fold | Shift ([6]; ZnCl2 (100 μM) vs WT): 265.7 fold | EC50 [9]: > 50000 nM | Concentration in which promastigotes were unable to grow ([13]; after 270 days in culture, start 1 μM): ≥ 10 µM | Development of resistance in L. donovani promastigotes ([13]; stepwise increasing concentrations over a 9-month period): could not develop any resistance | EC50 [10]: 600 nM | Shift (fold) ([1]; CaCl2 (3 mM) vs WT): 1.0 fold | Shift (fold) ([1]; CuCl2 (5 μM) vs WT): 0.9 fold | Shift (fold) ([1]; FeCl2 (10 μM) vs WT): 2.4 fold | Shift (fold) ([1]; MgCl2 (1 mM) vs WT): 1.1 fold | Shift (fold) ([1]; MnCl2 (10 μM) vs WT): 0.8 fold | EC50 [1, 18]: 1300 ± 60 nM | EC50 [1, 19]: 1300 ± 60 nM | EC50 [1, 20]: 900 ± 20 nM | EC50 [1, 21]: 1200 ± 50 nM | EC50 [1, 22]: 1200 ± 40 nM | EC50 [1, 23]: 1400 ± 70 nM | EC50 [1, 24]: 700 ± 60 nM | EC50 [1, 25]: 800 ± 50 nM | EC50 [1, 26]: 1400 ± 90 nM | EC50 [1, 27]: 800 ± 50 nM | EC50 [1, 28]: 790 nM | Shift (fold) ([1]; ZnCl2 (200 μM) vs WT): 19.7 fold | Shift of EC50 for HepG2 cells by ZnCl2 ([7]; 100 μM ZnCl2): 7 fold | EC50 ([7]; HepG2, read-out: EC50 for HepG2 cells, absence of exogenous ZnCl2): 47800 ± 3600 nM | EC50 ([7]; HepG2, read-out: HepG2 EC50): 15900 nM

[Cl][Cu][Cl] [CuCl2]
Maximum concentration of metal salt having a minimal impact on cell growth ([1]; T. brucei): 5 µM
